Reference: US12310364B2, “Safened compositions comprising pyridine carboxylate herbicides and cloquintocet” (Corteva Agriscience LLC, priority 2018, dated 2025)

Assays:
Assay type in all cases: in vivo
[1] = system: Salsola kali (Russian thistle), SASKR; assay: Greenhouse postemergence trial, visual injury on Russian thistle
Method: (§1) Greenhouse Trial Methodology-Evaluation of Postemergence Herbicidal […] in Crops […] When required to ensure good germination and healthy plants, a fungicide treatment and/or other chemical or physical treatment was applied. The plants were grown for 7-36 days (d) in a greenhouse with an approximate 14-hour (h) photoperiod which was maintained at about 23° C. during the day and 22° C. during the night. Nutrients and water were added on a regular basis and supplemental lighting was provided with overhead metal halide 1000-Watt lamps as necessary. The plants were employed for testing when they reached the second or third true leaf stage. Emulsifiable concentrates of each of each pyridine carboxylate herbicide (Compound A or Compound B) were prepared at 100 grams acid equivalent per liter (g ae/L). […] The concentrated stock solutions were further diluted with an aqueous mixture of 1.25% […] or MSO® Concentrate with LECI-TECH® to obtain stock solutions at reduced application rates for each herbicide. Spray solutions of the herbicide combinations (Compound A or Compound B plus safener) were prepared by adding weighed amounts or aliquots of the safener to the stock solutions of Compound A or Compound B to form 12-mL spray solutions in two-way combinations. […] Control plants were sprayed in the same manner with the solvent blank. All herbicide (component a) application rates are given as “g ae/ha” and all safener (component b) application rates are given as “g ai/ha.” The treated plants and control plants were placed in a greenhouse as described above and watered by sub-irrigation to prevent wash-off of the test compounds.

[2] = system: Hordeum vulgare (spring barley), HORVS; assay: Greenhouse postemergence safening trial, visual injury on spring barley
Method: as §1

[3] = system: Triticum aestivum (durum wheat), TRZDU; assay: Greenhouse postemergence safening trial, visual injury on durum wheat; details: safener alone 40 g/ha
Method: as §1

[4] = system: Avena sativa (common oat), AVESA; assay: Greenhouse postemergence safening trial, visual injury on common oat; details: safener alone 40 g/ha
Method: as §1

[5] = system: Brassica napus (winter rape), BRSNW; assay: Greenhouse postemergence trial, visual injury on winter rape
Method: as §1

[6] = system: Triticum aestivum (spring wheat), TRZAS; assay: Greenhouse postemergence safening trial, visual injury on spring wheat
Method: as §1

[7] = system: Triticum aestivum (winter wheat), TRZAW; assay: Greenhouse postemergence safening trial, visual injury on winter wheat; details: safener alone 40 g/ha
Method: as §1

[8] = system: Matricaria chamomilla (wild chamomile), MATCH; assay: Greenhouse postemergence trial, visual injury on wild chamomile
Method: as §1

[9] = system: Hordeum vulgare (winter barley), HORVW; assay: Greenhouse postemergence safening trial, visual injury on winter barley; details: safener alone 40 g/ha
Method: as §1

CNC.O=C(O)COc1ccc(Cl)c2cccnc12 [CQC-DMA, cloquintocet-dimethylammonium salt]
0%: % visual injury, Ob ([1]; safener alone 10 g/ha) | % visual injury, Ob ([1]; safener alone 20 g/ha) | % visual injury, Ob ([1]; safener alone 40 g/ha) | % visual injury, Ob ([2]; safener alone 10 g/ha) | % visual injury, Ob ([2]; safener alone 20 g/ha) | % visual injury, Ob ([2]; safener alone 40 g/ha) | % visual injury, Ob [3] | % visual injury, Ob [4] | % visual injury, Ob ([5]; safener alone 10 g/ha) | % visual injury, Ob ([5]; safener alone 20 g/ha) | % visual injury, Ob ([5]; safener alone 40 g/ha) | % visual injury, Ob ([6]; safener alone 10 g/ha) | % visual injury, Ob ([6]; safener alone 20 g/ha) | % visual injury, Ob ([6]; safener alone 40 g/ha) | % visual injury Δ [7] | % visual injury, Ob [7] | % visual injury, Ob ([8]; safener alone 10 g/ha) | % visual injury, Ob ([8]; safener alone 20 g/ha) | % visual injury, Ob ([8]; safener alone 40 g/ha) | % visual injury, Ob [9]

CCN(CC)CC.O=C(O)COc1ccc(Cl)c2cccnc12 [CQC-TEA, cloquintocet-triethylamine salt]
0%: % visual injury, Ob ([1]; safener alone 10 g/ha) | % visual injury, Ob ([1]; safener alone 20 g/ha) | % visual injury, Ob ([1]; safener alone 40 g/ha) | % visual injury, Ob ([2]; safener alone 10 g/ha) | % visual injury, Ob ([2]; safener alone 20 g/ha) | % visual injury, Ob ([2]; safener alone 40 g/ha) | % visual injury, Ob [3] | % visual injury, Ob [4] | % visual injury, Ob ([5]; safener alone 10 g/ha) | % visual injury, Ob ([5]; safener alone 20 g/ha) | % visual injury, Ob ([5]; safener alone 40 g/ha) | % visual injury, Ob ([6]; safener alone 10 g/ha) | % visual injury, Ob ([6]; safener alone 20 g/ha) | % visual injury, Ob ([6]; safener alone 40 g/ha) | % visual injury, Ob [7] | % visual injury, Ob ([8]; safener alone 10 g/ha) | % visual injury, Ob ([8]; safener alone 20 g/ha) | % visual injury, Ob ([8]; safener alone 40 g/ha) | % visual injury Δ [9] | % visual injury, Ob [9]

CC(O)CN(CC(C)O)CC(C)O.O=C(O)COc1ccc(Cl)c2cccnc12 [CQC-TIPA, cloquintocet-triisopropanolamine salt]
0%: % visual injury, Ob ([1]; safener alone 10 g/ha) | % visual injury, Ob ([1]; safener alone 20 g/ha) | % visual injury, Ob ([1]; safener alone 40 g/ha) | % visual injury, Ob ([2]; safener alone 10 g/ha) | % visual injury, Ob ([2]; safener alone 20 g/ha) | % visual injury, Ob ([2]; safener alone 40 g/ha) | % visual injury, Ob ([5]; safener alone 10 g/ha) | % visual injury, Ob ([5]; safener alone 20 g/ha) | % visual injury, Ob ([5]; safener alone 40 g/ha) | % visual injury, Ob ([6]; safener alone 10 g/ha) | % visual injury, Ob ([6]; safener alone 20 g/ha) | % visual injury, Ob ([6]; safener alone 40 g/ha) | % visual injury, Ob ([8]; safener alone 10 g/ha) | % visual injury, Ob ([8]; safener alone 20 g/ha) | % visual injury, Ob ([8]; safener alone 40 g/ha)
